Data on one compound can be found in PMC10525854 (Biomedicines, 2023).

Structures are written as SMILES. Values after ≈ are worked out from the molar mass of the structure shown.

Data set [1] in a line: Solubility of ACF in different media. Type of data set: physicochemical. The settings on record: thermodynamic from solid. As for the experimental part: The mixture was shaken using a vortex mixer (Heidolph Instrument, D-91126 Schwabach, type RZR 2021, Bavaria, Germany) for 15 min, followed by storage at room temperature. After 24 h, the resulting solution was subjected to centrifugation at 3000 rpm for 5 min to separate the clear supernatant. A suitable sample solution was collected and diluted with absolute methanol. The diluted sample was filtered using Whatman 102 filter paper and further diluted with absolute methanol for the determination of the drug concentration in the saturated solution. Analysis of the samples was performed using a UV spectrophotometer (DU 640; Beckman, CA, USA) at a wavelength of 276 nm, with methanol as the blank reference.

Data set [2] relates to A375 human melanoma cell lines. Put plainly: Cytotoxicity SRB assay. Type of data set: cell-based. The settings on record: A-375, 48 h of incubation (method says 72 h). For orientation: The SRB assay estimates cell density from bound dye.
Method: Cell viability was assessed by SRB assay as reported [47]. […] Melanoma cells were mixed with TCA (10%) and maintained at 4 °C for 1 h, then washed with D.W. Sulforhodamine B (70 μL) (0.4% w/v) was added and kept for 10 min. Plates were washed by 1% acetic acid 3 times and left to dry overnight. TRIS (150 μL) was added to dissolve the protein-bound SRB stain. Lastly, absorbance was determined by a star Omega microplate reader (BMGLABTECH®-FLUO, Ortenberg, Germany) at 540 nm [48, 49]. Cytotoxicity was expressed as (IC50), which was determined by plotting %viability against the concentration of the drug (five concentrations were used). IC50 values were calculated from the dose–response curve by the PRISM program.

What is called solubility is the dissolved amount per volume that the medium holds. What is called IC50 is the midpoint of a concentration-inhibition curve. The low end stands for greater potency, the high end for weaker potency.

Turning to `O=C(O)COC(=O)Cc1ccccc1Nc1c(Cl)cccc1Cl` [ACF, Aceclofenac], the solubility at 24 h in data set [1] (oil or lipid, citronellol oil, room temperature) stood at 5.26 mg/mL (≈ 14.9 mM); in data set [1] (organic solvent or mixture, Transcutol HP, room temperature), 300 mg/mL (≈ 848 mM); in data set [1] (Tween 80, room temperature) it was 62.6 mg/mL (≈ 177 mM); in data set [1] (water, room temperature), 0.071 mg/mL (≈ 0.2 mM). In addition, in data set [2], the IC50 stood at 69.3 µg/mL (≈ 0.196 mM).
